Experimental data published in BindingDB's records for patent US20240067645 (Lg Chem, 2024).

Molecular target: Diacylglycerol kinase alpha (Homo sapiens, UniProt P23743)
Experiment: Inhibitory Effect Against DGKalpha Enzyme
Procedure: First, 3×OAG (3 mM)/ATP (0.45 mM) substrate solution was prepared from 1× substrate assay buffer (40 mM MOPS (pH 7.2), 20 mM MgCl2, 1 mM DTT, 0.4 mM CaCl2), 3 mM sodium deoxycholate, 100 mM NaCl, 0.1 mg/mL BSA, 0.12% NP-40), and vortexed thoroughly for 3 minutes to induce detergent-lipid micelle formation. Then, 3×DGKα (7.5 nM) enzyme solution was prepared from 2× enzyme assay buffer (80 mM MOPS (pH 7.2), 2 mM DTT, 200 mM NaCl, 0.2 mg/mL BSA) and vortexed for a short time. After preparing the above two solutions, a half-area opaque 96-well assay plate was prepared, and 10 μL of 3× diluted compound solution (30 μM to 0 μM) was transferred to each well. Next, 10 μL of 3×DGK enzyme solution was transferred to the same plate, mixed by pipetting, and then 10 μL of 3×OAG/ATP substrate solution was added to the assay plate and mixed well. The plate was incubated at room temperature for 20 minutes for the enzyme reaction. Next, 15 μL of ADP-Glo reagent was added to each well and mixed by pipetting, followed by incubating the plate at room temperature for 40 minutes to deplete the remaining ATPs. After this step, 30 μL of kinase detection reagent was added and mixed, and the plate was incubated at room temperature for an additional 20 minutes and luminescence was measured by Envision to calculate the IC50 value of each compound.

Diacylglycerol kinase alpha, sequence (P23743 whole entry): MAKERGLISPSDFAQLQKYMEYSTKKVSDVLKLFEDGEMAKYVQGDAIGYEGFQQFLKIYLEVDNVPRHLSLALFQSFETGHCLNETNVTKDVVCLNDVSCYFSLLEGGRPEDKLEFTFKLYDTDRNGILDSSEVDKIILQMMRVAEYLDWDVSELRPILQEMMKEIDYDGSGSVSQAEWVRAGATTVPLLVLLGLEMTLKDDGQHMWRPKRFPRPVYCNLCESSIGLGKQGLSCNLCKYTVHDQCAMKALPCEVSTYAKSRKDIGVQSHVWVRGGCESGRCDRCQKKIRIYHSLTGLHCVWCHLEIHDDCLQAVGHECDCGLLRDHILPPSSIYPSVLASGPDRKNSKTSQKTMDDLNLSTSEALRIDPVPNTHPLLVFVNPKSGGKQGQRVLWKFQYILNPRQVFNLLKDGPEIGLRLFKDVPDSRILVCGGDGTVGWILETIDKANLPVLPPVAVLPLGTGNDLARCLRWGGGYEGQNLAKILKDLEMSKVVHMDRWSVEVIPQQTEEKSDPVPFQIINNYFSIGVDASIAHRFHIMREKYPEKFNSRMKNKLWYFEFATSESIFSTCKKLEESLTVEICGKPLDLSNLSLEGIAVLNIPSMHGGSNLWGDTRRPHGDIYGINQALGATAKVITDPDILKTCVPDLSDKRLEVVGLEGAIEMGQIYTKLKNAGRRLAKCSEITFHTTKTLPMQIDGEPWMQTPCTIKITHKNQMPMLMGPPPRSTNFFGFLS

Compound | IC50
Cn1c(=O)c(=O)n(C2CCN(Cc3cccc(Cl)c3)CC2)c2ncc(Cl)cc21 [US20240067645, Example 27] | < 300 nM
Cn1c(=O)c(=O)n(C2CCN(Cc3ccc(OC(F)(F)F)cc3)CC2)c2ncc(Br)cc21 [US20240067645, Example 34] | < 300 nM
Cn1c(=O)c(=O)n(C2CCN(Cc3cccc4c(Cl)cccc34)CC2)c2ncc(Cl)cc21 [US20240067645, Example 35] | < 300 nM
Cn1c(=O)c(=O)n(C2CCN(Cc3ccc(F)c(Cl)c3)CC2)c2ncc(Cl)cc21 [US20240067645, Example 42] | < 300 nM
Cn1c(=O)c(=O)n(C2CCN(Cc3ccc(OC(F)(F)F)c(Cl)c3)CC2)c2ncc(Cl)cc21 [US20240067645, Example 43] | < 300 nM
